Entries after “also recorded” stand apart in the source; their conditions may differ.
Legend:
[1] = test system: feruloyl-CoA:monolignol transferase from Angelica sinensis; assay: FMT enzymatic assay with purified recombinant Angelica sinensis FMT (UPLC detection of product); type: biochemical; settings: for product formed from acyl-CoA donor substrate: coniferyl alcohol as acceptor, FIGS. 2, 6, 7; for enzyme activity with monolignol as acyl acceptor substrate: feruloyl-CoA as acyl donor, FIGS. 2, 4, 5
Procedure: The feruloyl-CoA, p-coumaroyl-CoA, and caffeoyl-CoA substrates used in the FMT assay were enzymatically synthesized using the tobacco 4-coumarate-CoA-ligase (4CL) with a c-terminal HIS tag in pCRT7/CT TOPO, provided by Eran Pichersky. Following a method modified from Beuerle and Pichersky (Anal. Biochem. 302(2): 305-12 (2001)) 3.3 mg of ferulic acid, coumaric acid or caffeic acid, 2 mg coenzyme A, and 6.9 mg ATP were added to 50 mM Tris-hydrochloride pH 8 and 2.5 mM magnesium chloride in a final volume of 10 ml. The reaction was started by adding 0.25 mg 4CL, protein purified as described by the method of Beurerle and Pichershy. After a five-hour incubation at room temperature, additional 6.9 mg ATP, 2 mg coenzyme A, and 0.25 mg purified 4CL were added and the reaction was incubated overnight. The CoA esters were purified on an SPE cartridge as described in Beuerle and Pichersky (2001).
(§1) The FMT activity assay contained 100 mM MOPS pH 6.8, 1 mM dithiothreitol (DTT), 1 mM feruloyl-CoA, 1 mM coniferyl alcohol, 3.9 μg of purified FMT protein and deionized water to a volume of 50 μL. After a 30-minute incubation, 1 μL of 10 M hydrochloric acid was added to stop the reaction. Because the product synthesized in the reaction, coniferyl ferulate (CAFA), is insoluble, 50 μL of methanol was added to solubilize the CAFA. Prior to UPLC, protein and insoluble material were removed by filtering through an Amicon Ultracel 10K membrane filter (Millipore). The flow-through was analyzed using an Acquity Ultra Performance LC with an Acquity UPLC BEH C18 1.7 μm 2.1×100 mm column and the Acquity Console and Empower 2 Software, all from Waters Corporation. The solvents used in this method were solvent A, 0.1% trifluoroacetic acid, and solvent B, 100% acetonitrile. Samples were analyzed using the following gradient conditions, 13% B, for 5 minutes, 1 minute linear gradient to 42% B, held for 4 minutes, 1 minute linear gradient to 100% B, held for 1 minutes and 3 minutes at 13% B with a flow rate of 0.3 ml/minute. This method was then used to analyze a 10 μL injection of each assay reaction; standards for each of the substrates along with chemically synthesized CAFA were used to determine retention times for each compound.
Purified recombinant enzyme was assayed for FMT activity using a reaction mixture containing 2 mM coniferyl alcohol, […], 100 mM HEPES pH 7.4 and 1 mM DTT. The second most abundant BAHD acyltransferase gene when incubated with Coniferyl alcohol and feruloyl-CoA produced a compound with the retention time of authentic coniferyl ferulate (CAFA) (FIG. 2). […] The addition of methanol to 50% after stopping the enzyme with acid was required to analyze the product by UPLC. The insolubility of the product made partial purification easy as the product was separated from the substrates by centrifugation.

[2] = Solubility of the assay product coniferyl ferulate in the aqueous reaction mixture; type: physicochemical; settings: before addition of methanol to 50%
Procedure: as §1, with “compound. […]” for “compound.”

[3] = test system: Angelica sinensis feruloyl-CoA:monolignol transferase; assay: FMT enzyme assay of transgenic Arabidopsis stems; type: biochemical; settings: none with empty vector, FIG. 11B
Description: Arabidopsis were transformed by standard procedures with the Angelica sinensis feruloyl-CoA:monolignol transferase nucleic acids described herein. […] FMT expression was detected by Reverse Transcriptase PCR of […] isolated from the transgenic Arabidopsis leaves. Enzymatic activity by the expressed FMT was detected using the assay described in Example 1.

Angelica sinensis FMT = assay: FMT enzyme assay of transgenic poplar leaf extracts; type: biochemical; settings: extracts from transgenic hybrid poplar expressing YFP-FMT; none in wild type or no enzyme control; FIG. 10B
Description: Hybrid poplar (Populus alba×grandidentata) was transformed using Agrobacterium tumefaciens EHA105 employing a common leaf disk inoculation. Two constructs were created to drive the expression of FMT in poplar: 1) 35S::YFP-FMT (cauliflower mosaic virus ubiquitous 35S promoter with an N-terminal tagged Yellow Fluorescent Protein), and 2) CesA8::YFP-FMT (poplar xylem-specific secondary cell wall specific cellulose synthase 8 promoter with an N-terminal tagged Yellow Fluorescent Protein). The binary plasmids were inserted into EHA105 using the freeze-thaw technique, and incubated overnight in liquid Woody Plant Media (WPM) supplemented with 100 μM acetosyringone. Leaf disks were cut and co-cultured with EHA105 for one hour at room temperature, blotted dry and plated abaxailly onto WPM supplemented with 0.1 μM each α-naphthalene acetic acid (NAA), 6-benzylaminopurine (BA), and thiadiazuron (TDZ) and solidified with 3% (w/v) agar and 1.1% (w/v) phytagel (WPM 0.1/0.1/0.1). […]
Purification of YFP-FMT was via GFPtrap_A (Chromotek) following the manufactures guidelines. […] These samples were analyzed by western blot and the UPLC method described in the Examples above. Formation of coniferyl ferulate was also detected by comparison of the UPLC traces of leaf extracts with authentic coniferyl ferulate.

Hibiscus cannabinus FMT = assay: FMT enzymatic assay with purified Kenaf FMT (UPLC detection of coniferyl ferulate); type: biochemical; settings: Ni2+ column fractions 29 and 30; 1 mM feruloyl CoA, 1 mM coniferyl alcohol, pH 6, 45 min; FIG. 12B
Procedure: The feruloyl CoA, p-coumaroyl CoA, and caffeoyl CoA substrates used in the FMT assay were enzymatically synthesized using the tobacco 4-coumarate CoA-ligase (4CL) with a c-terminal HIS tag in pCRT7/CT TOPO. Following a method modified from Beuerle and Pichersky (2001) 3.3 mg of ferulic acid, coumaric acid or caffeic acid, 2 mg coenzyme A, and 6.9 mg ATP were 50 mM Tris-hydrochloride pH 8, 2.5 mM magnesium chloride in a final volume of 10 ml. The reaction was started by adding 0.25 mg 4CL protein, purified as described by the method of Beurerle and Pichershy. After a five-hour incubation at room temperature, an additional 6.9 mg ATP, 2 mg coenzyme A, and 0.25 mg purified 4CL were added and the reaction was incubated overnight. […]
The FMT activity assay contained 100 mM sodium phosphate buffer pH 6, 1 mM dithiothreitol (DTT), 1 mM feruloyl CoA, 1 mM coniferyl alcohol, 0.5 μg of purified Kenaf FMT protein and deionized water to a volume of 50 μLL. […] The flow-through was analyzed using an Acquity Ultra Performance LC with an Acquity UPLC BEH C18 1.7 μm 2.1×100 mm column and the Acquity Console and Empower 2 Software, all from Waters Corporation. […] Samples were analyzed using the following gradient conditions, 13% B, for 5 minutes, 1 minute linear gradient to 42% B, held for 4 minutes, 1 minute linear gradient to 100% B, held for 1 minute and 3 minutes at 13% B with a flow rate of 0.3 ml/minute. […]

Molecule | product formed from acyl-CoA donor substrate [1] | enzyme activity with monolignol as acyl acceptor substrate [1] | further results
COc1cc(/C=C/C(=O)SCCNC(=O)CCNC(=O)[C@H](O)C(C)(C)COP(=O)(O)OP(=O)(O)OC[C@H]2O[C@@H](n3cnc4c(N)ncnc43)[C@H](O)[C@@H]2OP(=O)(O)O)ccc1O [feruloyl-CoA] | substantial product |  | 
COc1cc(/C=C/CO)cc(OC)c1O [sinapyl alcohol] |  | active | 
OC/C=C/c1ccc(O)cc1 [p-coumaryl alcohol] |  | active | 
CC(C)(COP(=O)(O)OP(=O)(O)OC[C@H]1O[C@@H](n2cnc3c(N)ncnc32)[C@H](O)[C@@H]1OP(=O)(O)O)[C@@H](O)C(=O)NCCC(=O)NCCSC(=O)/C=C/c1ccc(O)cc1 [p-coumaroyl-CoA] | very little product |  | 
COc1cc(/C=C/COC(=O)/C=C/c2ccc(O)c(OC)c2)ccc1O [coniferyl ferulate] |  |  | solubility of product in water / assay mixture [2]: mostly insoluble in water; also recorded: partially insoluble
CC(C)(COP(=O)(O)OP(=O)(O)OC[C@H]1O[C@@H](n2cnc3c(N)ncnc32)[C@H](O)[C@@H]1OP(=O)(O)O)[C@@H](O)C(=O)NCCC(=O)NCCSC(=O)/C=C/c1ccc(O)c(O)c1 [caffeoyl-CoA] | very little product |  | 
COc1cc(/C=C/CO)ccc1O [coniferyl alcohol] |  | active | 
Angelica sinensis FMT: Angelica sinensis clone Dq155 pdest17 feruloyl-CoA:monolignol transferase enzyme, SEQ ID NO:2 (protein) MTIMEVQVVSKKMVKPSVPTPDHHKTCKLTAFDQIAPPDQVPIIYFYNSSNIHNIREQLVKSLSETLTKFYPLAGRFVQDGFYVDCNDEGVLYVEAEVNIPLNEFIGQAKKNIQLINDLVPKKNFKDIHSYENPIVGLQMSYFKCGGLAICMYLSHVVADGYTAAAFTKEWSNTTNGIINGDQLVSSSPINFELATLVPARDLSTVIKPAVMPPSKIKETKVVTRRFLFDENAISAFKDHVIKSESVNRPTRVEVVTSVLWKALINQSKLPSSTLYFHLNFRGKTGINTPPLDNHFSLCGNFYTQVPTRFRGGNQTKQDLELHELVKLLRGKLRNTLKNCSEINTADGLFLEAASNFNIIQEDLEDEQVDVRIFTTLCRMPLYETEFGWGKPEWVTIPEMHLEIVFLLDTKCGTGIEALVSMDEADMLQFELDPTISAFAS |  |  | FMT activity in ground stems (coniferyl ferulate detected) [3]: enzymatically active; FMT activity in leaf extracts (product peak at retention time of authentic coniferyl ferulate) (Angelica sinensis FMT): FMT activity was identified
Hibiscus cannabinus FMT: Hibiscus cannabinus (Kenaf) feruloyl-CoA:monolignol transferase enzyme, SEQ ID NO:9, expressed with N-terminal 6xHis tag in E. coli (protein, N-terminal 6xHis tag) MATHSTIMFSVDRNDVVFVKPFKPTPSQVLSLSTIDNDPNLEIMCHTVFVYQANADFDVKPKDPASIIQEALSKLLVYYYPLAGKMKRETDGKLRIACTADDSVPFLVATADCKLSSLNHLDGIDVHTGKEFALDFASESDGGYYHPLVMQVTKFICGGFTIALSLSHSVCDGFGAAQIFQALTELASGRNEPSVKPVWERQLLVAKPAEEIPRSIVDKDLSAASPYLPTTDIVHACFYVTEESIKTLKMNLIKESKDESITSLEVLSAYIWRARFRALKLSPDKTTMLGMAVGIRRTVKPRLPEGYYGNAFTSANTAMTGKELDQGPLSKAVKQIKESKKLASENDYIWNLMSINEKLRELNSKFEAAAGSTMVITDWRRLGLLEDVDFGWKGSVNMIPLPWNMFGYVDLVLLLPPCKLDQSMKGGARVLVSFPTAAIAKFKEEMDALKHDNKVAGDALVI |  |  | FMT activity: production of coniferyl ferulate from coniferyl alcohol and feruloyl-CoA (Hibiscus cannabinus FMT): production of coniferyl ferulate (3) is visible
